Measured values reported in patent US9975882B2, “Heteroaromatic compounds as BTK inhibitors” (Boehringer Ingelheim International GmbH, priority 2015, dated 2018).

Assays:
[1] = biological target: human full length His-tagged BTK (Homo sapiens (Human), UniProt Q06187); assay: BTK Lanthscreen Eu Kinase Binding assay; settings: 2 nM BTK
Experimental: BTK Lanthscreen® Eu Kinase Binding Assay:
A Lanthscreen® Eu Kinase Binding assay (Life Technologies) is performed to quantitate the ability of test compounds to bind to BTK. The assay is based on the binding and displacement of Alexa Fluor647-labeled Kinase Tracer #236 to the ATP-binding site of human full length His-tagged BTK (Life Technologies cat #PV3587) with TR-FRET detection using a europium-labeled anti-His antibody. The assay is assembled in 384-well low volume NBS black plates (Corning) where 2 nM BTK and test compound in DMSO at varying concentrations are pre-incubated for 30 min at 28° C. in assay buffer consisting of 50 mM HEPES, pH 7.4, 10 mM MgCl2, 1 mM EGTA. 100 μM Na3VO4 and 0.01% Brij 35. Then, 2 nM of Eu-anti His antibody and 30 nM Kinase Tracer are added and incubated for 60 min at 28° C. Following incubation, TR-FRET signal is read on an Envision plate reader (Excitation: 340 nm; Emissions: 615 and 665 nm). The 665:615 nm emission ratio is calculated and converted to POC compared to control and blank wells.

[2] = system: BTK (IL-6 production in primary CD19+ B cells); assay: Inhibition of IL-6 production in B cells co-stimulated with ODN 2006 and anti-hIgD; type: cell-based; settings: B-cell, anti-human IgD + ODN 2006
Experimental: Inhibition of IL-6 Production in B Cells Co-Stimulated with ODN 2006 and anti-hIgD
Primary CD19+ B cells (AllCells #PB010F) are thawed and plated in RPMI containing 10% HI FBS in a 384-well tissue cultured plate at 20,000 cells/well. The cells are treated with test compound (0.5% DMSO final concentration) and incubated for 1 hour at 37° C., 5% CO2. Cells are then stimulated with 5 ug/mL Goat F(ab′)2 anti-human IgD (SouthernBiotech #2032) and 2 uM ODN 2006 (InvivoGen #tlrl-2006) and incubated for 18-24 hours at 37° C., 5% CO2. IL-6 in the supernatant is measured using Meso Scale Discovery kit #K211AKB-6.
(§1) Representative compounds of the present invention are tested and show BTK inhibition (Table I). […] Additionally, compounds of the present invention, as represented by examples in Table II, are selective for BTK inhibition over other related kinases. […] In this table the BTK activity is measured by IL-6 production in primary CD19^+ B cells, and the EGFR activity is measured by EGFR phosphorylation in A431 cells.

[3] = biological target: EGFR (EGFR phosphorylation in A431 cells) (Homo sapiens (Human), UniProt P00533); assay: Inhibition of EGFR autophosphorylation in A431 human epithelial cells stimulated with EGF; type: cell-based; settings: EGF 60 ng/mL, read-out: A431 p-EGFR IC50
Experimental: Inhibition of EGFR Autophosphorylation in A431 Human Epithelial Cells Stimulated with Epithelial Growth Factor
A431 cells (ATCC #CRL-1555 FZ) are thawed and plated in DMEM containing 10% FBS in a 384-well tissue culture treated plate at 15,000 cells/well. After incubating for 24 hours at 37° C., 5% CO2, the cells are treated with test compound (1% DMSO final concentration) and incubated for 16 hours at 37° C., 5% CO2. EGF (Millipore, 01-107) is added at a final concentration of 60 ng/mL and incubated for 10 minutes. The medium is removed, the cells are lysed, and phospho EGFR is measured (Meso Scale Diagnostics, N31CB-1).
as §1

[4] = biological target: human recombinant BTK (full length, His-tagged) (Homo sapiens (Human), UniProt Q06187); assay: BTK Z'-LYTE assay; type: biochemical; settings: 25 μM ATP;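 also: FRET readout of kinase phosphorylating a coumarin and fluorescein labelled synthetic peptide, detected via protease sensitivity of unphosphorylated versus phosphorylated substrate, incubated at 22 °C in 384-well plates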
Experimental: Z′-LYTE™ Assay (Life Technologies):
(§2) The Z′-Lyte assay employs a FRET-based, coupled-enzyme format and is based on the differential sensitivity of phosphorylated and non-phosphorylated peptides to proteolytic Cleavage. The activity of human recombinant BTK (full length, His-tagged), BMX (full length, His-tagged) or Txk (full length, GST-tagged) is estimated by measuring the phosphorylation of a synthetic FRET peptide substrate labeled with Coumarin and Fluorescein. […] Incubations are carried out at 22° C. in black polypropylene 384-well plates (Corning).
(§3) Representative compounds of the present invention are assessed for inhibition of BTK, BMX, and TXK measuring phosphorylation of a substrate (Z′-LYTE™ assay, Life Technologies) and TEC measuring displacement of a “tracer” (Lanthscreen® Eu Kinase Binding assay, Life Technologies).

[5] = biological target: human recombinant full length TEC (His-tagged) (Homo sapiens (Human), UniProt P42680); assay: TEC Lanthscreen Eu Kinase Binding assay; settings: 1 nM TEC
[6] = biological target: human recombinant Txk (full length, GST-tagged) (Homo sapiens (Human), UniProt P42681); assay: TXK Z'-LYTE assay; settings: read-out: TXK IC50, 100 μM ATP;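 also: FRET read-out of kinase phosphorylation of a synthetic peptide labelled with Coumarin and Fluorescein, scored by protease sensitivity of unphosphorylated peptide, incubated at 22 °C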
human recombinant Txk (full length, GST-tagged), sequence (P42681 whole entry): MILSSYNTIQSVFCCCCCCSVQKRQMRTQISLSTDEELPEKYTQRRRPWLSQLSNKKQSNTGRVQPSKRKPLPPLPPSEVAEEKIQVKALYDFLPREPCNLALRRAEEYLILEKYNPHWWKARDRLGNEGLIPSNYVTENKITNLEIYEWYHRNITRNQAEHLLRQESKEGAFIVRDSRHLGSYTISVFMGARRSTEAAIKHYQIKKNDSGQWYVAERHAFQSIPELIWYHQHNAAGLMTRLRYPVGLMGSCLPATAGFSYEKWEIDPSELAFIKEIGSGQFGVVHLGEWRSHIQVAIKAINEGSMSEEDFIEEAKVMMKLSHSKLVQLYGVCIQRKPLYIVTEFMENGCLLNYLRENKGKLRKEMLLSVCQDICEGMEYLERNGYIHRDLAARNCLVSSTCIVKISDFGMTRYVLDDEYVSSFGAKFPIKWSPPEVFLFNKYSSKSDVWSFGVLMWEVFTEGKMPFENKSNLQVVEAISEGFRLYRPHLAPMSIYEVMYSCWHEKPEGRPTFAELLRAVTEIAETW
Experimental: Z′-LYTE™ Assay (Life Technologies):
as §2, §3

human full length His-tagged BTK, sequence (Q06187 whole entry): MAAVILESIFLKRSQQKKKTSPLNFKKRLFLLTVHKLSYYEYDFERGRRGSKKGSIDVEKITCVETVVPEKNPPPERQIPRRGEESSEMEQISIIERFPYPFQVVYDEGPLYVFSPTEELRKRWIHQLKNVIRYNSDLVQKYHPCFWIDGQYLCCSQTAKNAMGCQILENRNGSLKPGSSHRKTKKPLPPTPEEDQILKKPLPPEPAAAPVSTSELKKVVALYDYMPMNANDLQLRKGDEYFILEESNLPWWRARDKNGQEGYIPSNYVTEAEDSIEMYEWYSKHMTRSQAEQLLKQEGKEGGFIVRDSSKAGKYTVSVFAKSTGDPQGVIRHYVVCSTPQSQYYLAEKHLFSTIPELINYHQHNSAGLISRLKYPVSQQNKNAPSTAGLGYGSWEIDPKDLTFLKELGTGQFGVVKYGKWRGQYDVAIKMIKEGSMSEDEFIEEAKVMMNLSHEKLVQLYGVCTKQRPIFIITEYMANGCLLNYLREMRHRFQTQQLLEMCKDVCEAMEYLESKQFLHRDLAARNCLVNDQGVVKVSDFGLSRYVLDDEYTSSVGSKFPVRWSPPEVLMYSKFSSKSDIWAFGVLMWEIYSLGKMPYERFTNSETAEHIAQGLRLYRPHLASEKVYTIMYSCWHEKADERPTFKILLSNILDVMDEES
human recombinant BTK (full length, His-tagged), sequence (Q06187 whole entry): as above
EGFR (EGFR phosphorylation in A431 cells), sequence (P00533 25-1210): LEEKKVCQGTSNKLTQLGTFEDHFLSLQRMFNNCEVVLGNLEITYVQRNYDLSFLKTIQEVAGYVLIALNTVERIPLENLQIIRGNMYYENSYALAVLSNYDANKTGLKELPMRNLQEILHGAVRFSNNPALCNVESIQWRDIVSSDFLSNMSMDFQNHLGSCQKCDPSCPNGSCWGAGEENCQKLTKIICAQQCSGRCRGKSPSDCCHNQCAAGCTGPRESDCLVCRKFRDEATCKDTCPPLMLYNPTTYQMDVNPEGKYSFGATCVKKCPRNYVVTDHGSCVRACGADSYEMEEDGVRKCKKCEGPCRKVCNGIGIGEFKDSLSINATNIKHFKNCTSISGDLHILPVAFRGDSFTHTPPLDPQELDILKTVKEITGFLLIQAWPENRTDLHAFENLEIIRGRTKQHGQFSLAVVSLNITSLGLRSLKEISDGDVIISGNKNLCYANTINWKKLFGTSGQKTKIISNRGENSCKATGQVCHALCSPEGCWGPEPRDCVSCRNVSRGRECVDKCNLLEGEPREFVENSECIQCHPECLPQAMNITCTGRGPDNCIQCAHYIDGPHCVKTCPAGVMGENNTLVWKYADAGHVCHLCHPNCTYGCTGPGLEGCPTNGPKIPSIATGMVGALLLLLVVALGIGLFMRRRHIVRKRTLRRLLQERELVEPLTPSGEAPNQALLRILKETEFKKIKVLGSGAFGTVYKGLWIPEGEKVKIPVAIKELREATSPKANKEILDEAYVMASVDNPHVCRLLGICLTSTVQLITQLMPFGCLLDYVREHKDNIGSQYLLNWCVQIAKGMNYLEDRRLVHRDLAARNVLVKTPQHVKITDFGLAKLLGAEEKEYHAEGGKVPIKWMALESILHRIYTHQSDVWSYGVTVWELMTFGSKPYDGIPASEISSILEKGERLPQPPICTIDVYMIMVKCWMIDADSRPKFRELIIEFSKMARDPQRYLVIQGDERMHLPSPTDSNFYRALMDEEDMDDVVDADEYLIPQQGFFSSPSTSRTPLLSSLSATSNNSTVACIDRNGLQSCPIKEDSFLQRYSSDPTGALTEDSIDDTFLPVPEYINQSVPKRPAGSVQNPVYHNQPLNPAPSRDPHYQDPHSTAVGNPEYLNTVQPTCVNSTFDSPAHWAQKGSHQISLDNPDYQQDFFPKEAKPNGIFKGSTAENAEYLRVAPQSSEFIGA
human recombinant full length TEC (His-tagged), sequence (P42680 whole entry): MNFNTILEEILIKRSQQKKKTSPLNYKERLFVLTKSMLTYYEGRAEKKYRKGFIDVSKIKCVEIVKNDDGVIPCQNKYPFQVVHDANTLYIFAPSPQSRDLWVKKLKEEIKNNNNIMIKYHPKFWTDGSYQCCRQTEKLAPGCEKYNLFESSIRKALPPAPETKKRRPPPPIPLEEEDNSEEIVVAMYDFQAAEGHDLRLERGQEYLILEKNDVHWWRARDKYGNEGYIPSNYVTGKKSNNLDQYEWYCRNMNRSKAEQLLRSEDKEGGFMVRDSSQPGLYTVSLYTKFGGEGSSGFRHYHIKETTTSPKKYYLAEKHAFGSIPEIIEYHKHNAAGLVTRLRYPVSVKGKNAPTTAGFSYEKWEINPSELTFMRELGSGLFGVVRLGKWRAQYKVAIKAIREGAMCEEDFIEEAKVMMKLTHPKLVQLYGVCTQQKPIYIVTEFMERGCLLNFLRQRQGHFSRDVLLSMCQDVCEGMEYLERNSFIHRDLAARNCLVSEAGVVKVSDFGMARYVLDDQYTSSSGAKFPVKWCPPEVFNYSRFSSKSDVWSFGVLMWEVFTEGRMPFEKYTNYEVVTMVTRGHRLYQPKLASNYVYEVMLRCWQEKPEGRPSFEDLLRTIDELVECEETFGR

Row | SMILES | IC50 [1] [nM] | IC50 [2] [nM] | IC50 [3] [nM] | IC50 [4] [nM] | IC50 [5] [nM] | IC50 [6] [nM]
1 | CC#CC(=O)N1CC[C@]2(C1)C[C@H](n1nc(-c3cnn(Cc4ccc(C)c(C(F)(F)F)c4)c3)c(C(N)=O)c1N)C2 [Example 5] | 0.4 |  |  |  |  | 
2 | CC#CC(=O)N1CC[C@]2(C1)C[C@H](n1nc(-c3cnn(Cc4ccccc4)c3)c(C(N)=O)c1N)C2 [Example 44] | 0.3 | 0.7 | > 10000 | 1.4 | 20 | 78
3 | CC#CC(=O)N1CC[C@]2(C1)C[C@H](n1nc(-c3cnn(Cc4cccc(C(F)(F)F)c4C#N)c3)c(C(N)=O)c1N)C2 [Example 10] | 0.5 | 1.1 | > 10000 | 1.4 | 120 | 100
4 | CC#CC(=O)N1CC[C@]2(C1)C[C@H](n1nc(-c3cnn(Cc4cc(C(F)(F)F)ccc4C)c3)c(C(N)=O)c1N)C2 [Example 4] | 1.8 |  |  |  |  | 
5 | CC#CC(=O)N1CC[C@]2(C1)C[C@H](n1nc(-c3cnn(Cc4ccc(F)cc4)c3)c(C(N)=O)c1N)C2 [Example 29] | 0.8 |  |  | 3.6 |  | 92
6 | CC#CC(=O)N1CC[C@]2(C1)C[C@H](n1nc(-c3cnn(Cc4cc(C(F)(F)F)ccc4OC)c3)c(C(N)=O)c1N)C2 [Example 7] |  | 72 | > 10000 |  |  | 
7 | CC#CC(=O)N1CC[C@]2(C1)C[C@H](n1nc(-c3cnn(Cc4ccccc4Cl)c3)c(C(N)=O)c1N)C2 [Example 54] | 0.5 | 0.4 | > 10000 | 1.5 | 35 | 110
8 | CC#CC(=O)N1CC[C@]2(C1)C[C@H](n1nc(-c3cnn(Cc4ccccc4C#N)c3)c(C(N)=O)c1N)C2 [Example 11] | 0.7 |  |  | 1.8 | 73 | 150
9 | CC#CC(=O)N1CC[C@]2(C1)C[C@H](n1nc(-c3cnn(Cc4cc(F)ccc4C(F)(F)F)c3)c(C(N)=O)c1N)C2 [Example 57] | 0.9 |  |  |  |  | 
10 | CC#CC(=O)N1CC[C@]2(C1)C[C@H](n1nc(-c3cn(Cc4cccc(C5CC5)c4)nc3C)c(C(N)=O)c1N)C2 [Example 37] | 0.8 |  |  |  |  | 
11 | CC#CC(=O)N1CC[C@]2(C1)C[C@H](n1nc(-c3cnn(Cc4cc(C(F)(F)F)ccc4Cl)c3)c(C(N)=O)c1N)C2 [Example 8] |  | 2.5 | > 10000 |  |  | 
12 | CC#CC(=O)N1CC[C@]2(C1)C[C@H](n1nc(-c3cnn(Cc4cccc(C(F)(F)F)n4)c3)c(C(N)=O)c1N)C2 [Example 14] | 0.5 | 1.1 | > 10000 | 1.7 | 92 | 
13 | C=CC(=O)N1CC[C@]2(C1)C[C@H](n1nc(-c3cnn(Cc4cccc(C(F)(F)F)c4)c3)c(C(N)=O)c1NC)C2 [Example 20] | 22 |  |  |  |  | 
14 | CC#CC(=O)N1CC2(CC(n3nc(-c4cnn(Cc5cc(C)cc(C(F)(F)F)c5)c4)c(C(N)=O)c3N)C2)C1 [Example 46] | 7.9 |  |  |  |  | 
15 | CC#CC(=O)N1CC[C@]2(C1)C[C@H](n1nc(-c3cnn(Cc4cccc(C5CC5)c4)c3)c(C(N)=O)c1NC)C2 [Example 24] | 0.8 |  |  |  |  | 
16 | CC#CC(=O)N1CC[C@]2(C1)C[C@H](n1nc(-c3cnn(Cc4cc(Cl)cc(C(F)(F)F)c4)c3)c(C(N)=O)c1N)C2 [Example 39] | 0.9 |  |  |  |  | 
17 | CC#CC(=O)N1CC[C@]2(C1)C[C@H](n1nc(-c3cnn([C@H](C)c4cccc(C(F)(F)F)c4)c3)c(C(N)=O)c1N)C2 [Example 18] |  | 8 | > 10000 |  |  | 
18 | CC#CC(=O)N1CC2(CC(n3nc(-c4cnn(Cc5ccccc5)c4)c(C(N)=O)c3N)C2)C1 [Example 45] | 6 |  |  |  |  | 
19 | CC#CC(=O)N1CC[C@]2(C1)C[C@H](n1nc(-c3cnn(Cc4cccc(C(F)(F)F)c4Cl)c3)c(C(N)=O)c1N)C2 [Example 3] |  | 1.2 | > 10000 |  |  | 
20 | CC#CC(=O)N1CC[C@]2(C1)C[C@H](n1nc(-c3cnn(Cc4cc(F)cc(C(F)(F)F)c4)c3)c(C(N)=O)c1N)C2 [Example 31] | 0.8 |  |  |  |  | 

Row | SMILES | IC50 [1] [nM] | IC50 [2] [nM] | IC50 [3] [nM] | IC50 [4] [nM] | IC50 [5] [nM] | IC50 [6] [nM]
21 | CC#CC(=O)N1CC[C@]2(C1)C[C@H](n1nc(-c3cnn(Cc4ccnc(C(F)(F)F)c4)c3)c(C(N)=O)c1N)C2 [Example 13] | 9.1 |  |  |  |  | 
22 | CC#CC(=O)N1CC2(CC(n3nc(-c4cnn(Cc5cc(C(F)(F)F)cc(C(F)(F)F)c5)c4)c(C(N)=O)c3N)C2)C1 [Example 49] | 45 |  |  |  |  | 
23 | CC#CC(=O)N1CC[C@]2(C1)C[C@H](n1nc(-c3cnn(Cc4cccc(F)c4F)c3)c(C(N)=O)c1N)C2 [Example 59] | 0.3 | 0.4 | > 10000 | 0.8 |  | 68
24 | CC#CC(=O)N1CC2(CC(n3nc(-c4cnn(Cc5cc(C)cc(C)c5)c4)c(C(N)=O)c3N)C2)C1 [Example 40] | 4.2 |  |  |  |  | 
25 | CC#CC(=O)N1CC[C@]2(C1)C[C@H](n1nc(-c3cnn(Cc4ccc(Cl)c(C(F)(F)F)c4)c3)c(C(N)=O)c1N)C2 [Example 58] |  | 3.4 | > 10000 |  |  | 
26 | CC#CC(=O)N1CC[C@]2(C1)C[C@H](n1nc(-c3cnn(Cc4cccc(Cl)c4)c3)c(C(N)=O)c1N)C2 [Example 2] |  | 0.3 | > 10000 |  |  | 
27 | CC#CC(=O)N1CC[C@]2(C1)C[C@H](n1nc(-c3cnn(Cc4cc(C(F)(F)F)ccc4F)c3)c(C(N)=O)c1N)C2 [Example 32] | 0.5 | 1.3 | > 10000 | 1.9 |  | 
28 | C=CC(=O)N1CC2(CC(n3nc(-c4cnn(Cc5ccccc5)c4)c(C(N)=O)c3N)C2)C1 [Example 48] | 16 |  |  |  |  | 
29 | CC#CC(=O)N1CC[C@]2(C1)C[C@H](n1nc(-c3cn(Cc4cccc(Cl)c4)nc3C)c(C(N)=O)c1N)C2 [Example 34] | 0.7 |  |  |  |  | 
30 | CC#CC(=O)N1CC[C@]2(C1)C[C@H](n1nc(-c3cn(Cc4cccc(C(F)F)c4)nc3C)c(C(N)=O)c1N)C2 [Example 35] | 0.9 |  |  |  |  | 
31 | CC#CC(=O)N1CC[C@]2(C1)C[C@H](n1nc(-c3cnn(Cc4cc(C)cc(C(F)(F)F)c4)c3)c(C(N)=O)c1N)C2 [Example 38] | 3 |  |  |  |  | 
32 | NC(=O)c1c(-c2cnn(Cc3ccccc3)c2)nn([C@H]2C[C@@]3(CCN(C(=O)C#CC4CC4)C3)C2)c1N [Example 41] | 0.3 |  |  |  |  | 
33 | C=CC(=O)N1CC[C@]2(C1)C[C@H](n1nc(-c3cnn(Cc4ccccc4)c3)c(C(N)=O)c1N)C2 [Example 1] | 36 |  |  |  |  | 
34 | C=CC(=O)N1CC[C@]2(C1)C[C@H](n1nc(-c3cnn(Cc4cccc(C(F)(F)F)c4)c3)c(C(N)=O)c1N)C2 [Example 42] | 78 |  |  |  |  | 
35 | CC#CC(=O)N1CC[C@]2(C1)C[C@H](n1nc(-c3cnn(Cc4cccc(F)c4)c3)c(C(N)=O)c1N)C2 [Example 28] | 0.3 |  |  | 1.2 | 39 | 95
36 | C=CC(=O)N1CC[C@]2(C1)C[C@H](n1nc(-c3cnn(Cc4cccc(C5CC5)c4)c3)c(C(N)=O)c1N)C2 [Example 43] | 3 |  |  |  |  | 
37 | CC#CC(=O)N1CC[C@]2(C1)C[C@H](n1nc(-c3cnn(C(C)c4cccc(C(F)(F)F)c4)c3)c(C(N)=O)c1N)C2 (some centres unmarked) [Example 15] | 1.1 |  |  |  |  | 
38 | CC#CC(=O)N1CC[C@]2(C1)C[C@H](n1nc(-c3cnn(Cc4ccccc4OC(F)(F)F)c3)c(C(N)=O)c1N)C2 [Example 9] | 0.6 |  |  |  |  | 
39 | CC#CC(=O)N1CC[C@]2(C1)C[C@H](n1nc(-c3cnn(Cc4cccc(Cl)c4)c3)c(C(N)=O)c1NC)C2 [Example 27] | 1.7 | 3.4 | > 10000 | 6.6 | 66 | 
